Source: PMC6429459, “The HslV Protease from Leishmania major and Its Activation by C-terminal HslU Peptides” (International Journal of Molecular Sciences, 2019)
Entries after “also recorded” stand apart in the source; their conditions may differ. Numbered stars: 1 amine (or outer) side, 2 acyl side, 3 side chain; on linkers, the order of the positions; unused ones are H or OH. * marks the point of attachment. AMC = Cc1cc(=O)oc2cc(N*)ccc12; Suc = O=C(CCC(=O)[*:2])[*:1]; Cbz = O=C(OCc1ccccc1)*

What was measured:
recombinant LmHslV [1] = test: LmHslV peptidase activation by HslU C-terminal peptides, substrate Z-EVNL-AMC (JMV4482); format: biochemical, Leishmania major; settings: for LmHslV activation relative to reference peptide 10 (LmC12-U2) / Potency of LmHslV activation relative to LmC12-U2: LmHslV 75.2 nM, Figure 3; for LmHslV activation relative to reference peptide 10 (LmC12-U2): initial velocity normalised to 10 = 100%; for LmHslV activation, Ala-scan, D-scan and truncations, relative to LmC12-U2: LmHslV 2 μg, 30 min at 37 °C, JMV4482 (Z-EVNL-AMC) 100 μM, Figure 4
Experimental: (§1) Activity assay: The peptidase activity of recombinant LmHslV was assessed by measuring the fluorescence of AMC released after hydrolysis of the fluorogenic substrates Z-GGL-AMC or JMV4482 (Z-EVNL-AMC), 100 µM. LmHslV activation was obtained by addition of activating peptides (see type and concentration in the figure legends). Activity buffer: 25 mM Tris-HCl pH 8.0, 1 mM DTT, 0.5 mM EDTA and 5 mM MgCl2. Most of the experiments were performed in a final volume of 50 µL in black 96-well microplates (Fisher Scientific, Illkirch, France. Fluorescence was measured using a spectrofluorimeter (BIO-TEK Instrument, Inc., Winooski, VT, USA): filters 360/340 for excitation and 460/440 for emission.
Figure 3 Both peptides derived from the C-terminal end of either LmHslU1 or LmHslU2 and analogues from other microorganisms are able to support LmHslV activation. LmHslV (75,2nM) was incubated at 37 °C with the peptide substrate Z-EVNL-AMC (100 μM) in the presence of peptides 8–11 and 1–15 (500 μM). A scrambled version of LmC12-U2 (44) was also included. The fluorescence of the free AMC group, proportional to the activity of the sample, was measured at 2 min. intervals.
Figure 4 Sequence requirements for activation of LmHslV by C-terminal LmHslU2 peptides. (A) Alascan. Percentage of initial velocity relative to compound LmC12-U2. Fluorescence was measured for 30 min incubation at 37 °C of LmHslV (2 μg) with 100 μM JMV4482 (Z-EVNL-AMC) in the presence of 500 μM peptides. (B) D-scan. Percentage of initial velocity relative to compound LmC12-U2. Activity was measured as in (A). (C) Truncated peptides. Percentage of activity relative to compound LmC12-U2, measured as in (A).
Figure 5 Effect of conformational constraints on HslV activation by HslU C-terminal peptides. HslV activity was measured in the presence of various cyclic analogues of LmC12-U2 and LmC9-U2. Values are expressed as percentage of initial velocity relative to compound LmC12-U2.
Figure S3. Effect of LmC12-U2 dimerization. LmHslV has been incubated at 37°C for 30 min with […]
the substrate Z-EVNL-AMC (100µM). The fluorescence generated by the cleavage of the substrate was recorded at 5 min intervals. The dotted line represents the ratio at each time point between the fluorescence values obtained with the two peptides.
(also on this page, place not known: dimerization . ( 12), Di-C12 / C12 Fluorescence (arbitrary unit) Ratio)

recombinant LmHslV [2] = test: LmHslV peptidase activation by HslU C-terminal peptides, substrate Z-GGL-AMC; format: biochemical, Leishmania major; settings: in words; for Activation of LmHslV (AMC fluorescence liberated per minute): LmHslV 300 nM, 37 °C, Z-GGL-AMC 100 μM, peptide 2.2 mM, read every 15 min for 2 h, mean of two replicates, Figure 1
Experimental: as §1
Figure 1 Activation of LmHslV by HslU-derived peptides. (A) Activation of LmHslV by peptides corresponding to the 8 C-terminal residues of LmHslU1 (compound 1) and U2 (compound 4). LmHslV (300 nM) was incubated at 37 °C with the peptide substrate Z-GGL-AMC (100μM) in the presence of vehicle (left) or 2.2 mM of the peptides H-LmC8-U1 or Ac-LmC8-U2. The fluorescence of the free AMC group liberated by hydrolysis of the substrate, which is proportional to the proteolytic activity of the sample, was measured every 15 min for 2 h. The activity is calculated as fluorescence units liberated by the minute during the linear period of the assay. The values are the mean of two experimental replicates for a representative experiment; errors bars represent deviation from the mean of the values. (B) LmHslV can also be activated by octapeptides derived from the C-terminus of […] from E. coli. Assays were performed as in (A), using compounds 4 (Ac-LmC8-U2), 6 (H-EcC8-U) and 7 (Ac-EcC8-U).

[3] = Circular dichroism, α-helix content from θ at 222 nm; format: physicochemical; settings: for Helicity%: 25 mM Tris-HCl pH 8.0, 20 °C, 100% helicity for θ = −36,000; for θmre at 222 nm: 25 mM Tris-HCl pH 8.0, around 200 μM peptide, 20 °C, 1 mm cuvette, 3 scans
Experimental: CD spectra (Figure S2) were recorded on a JASCO J-815 spectropolarimeter from 190 to 260 nm (data pitch of 0.1 nm, continuous scanning mode, 200 nm/min, 3 scans) at 20 °C, using a 1 mm path length cuvette. Baseline was corrected by subtracting the background from the sample spectrum.
Peptides were solubilised in 50 mM Tris-HCl, pH 8.0 buffer at an estimated concentration of 400 μM according to their apparent molecular mass (i.e. M + xTFA with x = number of basic groups). The solutions were then diluted twice (25 mM Tris and around 200 μM peptides final concentrations) with: […]

LmHslV = test: Degradation of fluorogenic substrates by LmC12-U2-activated LmHslV; format: biochemical, Leishmania major; settings: LmHslV 75.2 nM, 37 °C, substrate 100 μM, activating peptide LmC12-U2 500 μM; Figure 2; in words
Experimental: as §1
Figure 2 Degradation of different fluorogenic substrates by LmHslV. LmHslV (75.2 nM) was incubated at 37 °C with different fluorogenic substrates (100 μM) in the presence of the activating peptide LmC12-U2 (500 μM). The fluorescence of the free AMC group, proportional to the activity of the sample, was measured at 2 min. intervals. With each substrate, no activity was measured in the absence of activating peptide: for the sake of clarity, only the negative control values obtained with the substrate ZGGL-AMC are shown.

[4] = Solubility in aqueous assay solutions (observation); settings: aqueous assay conditions, peptide concentrations in the millimolar range; in words
[5] = 37 °C, Z-EVNL-AMC 100 μM, peptide 500 μM, in words
[6] = substrate Z-EVNL-AMC, Figure 5, in words
[7] = 37 °C, Z-EVNL-AMC 100 μM, peptide 500 μM

H-arg-O2Oc-Leu-Gln-Lys-Asn-Val-Asn-Leu-Ala-Lys-Phe-Leu-Leu-OH [Compound 11]
LmHslV activation relative to reference peptide 10 (LmC12-U2) (recombinant LmHslV [1]; [5]): decreased activity; also recorded: reverse effect

H-VDIKKFIL-OH [Compound 1]
Activation of LmHslV (AMC fluorescence liberated per minute) (recombinant LmHslV [2]): able to activate the protease

Ac-EDLSRFIL-OH [Compound 7]
Activation of LmHslV (AMC fluorescence liberated per minute) (recombinant LmHslV [2]): also found to activate LmHslV

H-arg-O2Oc-Leu-Gln-Lys-c[Asp-Val-Asn-Leu-Orn]-Lys-Tyr-Leu-Leu-OH (sidechain bridge or staple) [Compound 41]
LmHslV activation by cyclic analogues relative to reference peptide 10 (recombinant LmHslV [1]; [6]): activity decreased

H-arg-O2Oc-Leu-Met-Asn-Asn-Ile-Asp-Leu-Ala-Lys-Tyr-Ile-Leu-OH [Compound 13]
Potency of LmHslV activation relative to LmC12-U2 (recombinant LmHslV [1]; [7]): twice

H-arg-O2Oc-Leu-Gln-Lys-Asn-Val-Asn-leu-Ala-Lys-Tyr-Leu-Leu-OH [Compound 23]
LmHslV activation, Ala-scan, D-scan and truncations, relative to LmC12-U2 (recombinant LmHslV [1]; peptide 500 μM, in words): no activity

H-arg-O2OC-Asn-Val-Asn-Leu-Ala-Lys-Tyr-Leu-Leu-OH [Compound 29]
Helicity% ([3]; 0% TFE): 5%
θmre at 222 nm ([3]; 0% TFE): −1711 deg.cm^2.dmol^−1
Helicity% ([3]; 25% TFE): 11%
θmre at 222 nm ([3]; 25% TFE): −4130 deg.cm^2.dmol^−1
Helicity% ([3]; 50% TFE): 13%
θmre at 222 nm ([3]; 50% TFE): −4733 deg.cm^2.dmol^−1

H-arg-O2Oc-c[Asp-Val-Asn-Leu-Lys]-Lys-Tyr-Leu-Leu-OH (sidechain bridge or staple) [Compound 43]
Helicity% ([3]; 0% TFE): 6%
θmre at 222 nm ([3]; 0% TFE): −2225 deg.cm^2.dmol^−1
Helicity% ([3]; 25% TFE): 14%
θmre at 222 nm ([3]; 25% TFE): −5026 deg.cm^2.dmol^−1
Helicity% ([3]; 50% TFE): 14%
θmre at 222 nm ([3]; 50% TFE): −5140 deg.cm^2.dmol^−1
LmHslV activation by cyclic analogues relative to reference peptide 10 (recombinant LmHslV [1]; [6]): almost as active as the reference peptide 10; also recorded: did not reduce the activity compared to LmC12-U2 (10)

Cbz-Gly-Gly-Leu-{AMC}
Degradation of fluorogenic substrate by activated LmHslV (LmHslV): degraded by peptide-activated LmHslV

Suc-LLVY-{AMC}
Degradation of fluorogenic substrate by activated LmHslV (LmHslV): degraded by peptide-activated LmHslV

H-arg-O2Oc-Leu-Gln-Lys-Asn-Val-Asn-Leu-Ala-Lys-Tyr-Leu-Leu-OH [Compound 10]
Activation of LmHslV compared with LmC8-U2 peptide 4 (recombinant LmHslV [2]; substrate Z-GGL-AMC, preliminary experiments): much more efficiently than the LmC8-U2 peptide 4
LmHslV activation, Ala-scan, D-scan and truncations, relative to LmC12-U2 (recombinant LmHslV [1]; peptide 500 μM, in words): by far the most potent activator

H-VNLAKYLL-OH [Compound 3]
Solubility of activating peptide [4]: not soluble enough for reliable results

H-arg-O2Oc-Leu-Gln-Lys-c[Asp-Val-Asn-Leu-Lys]-Lys-Tyr-Leu-Leu-OH (sidechain bridge or staple) [Compound 37]
Helicity% ([3]; 0% TFE): 5%
θmre at 222 nm ([3]; 0% TFE): −1626 deg.cm^2.dmol^−1
Helicity% ([3]; 25% TFE): 17%
θmre at 222 nm ([3]; 25% TFE): −6143 deg.cm^2.dmol^−1
θmre at 222 nm ([3]; 50% TFE): −7628 deg.cm^2.dmol^−1
LmHslV activation by cyclic analogues relative to reference peptide 10 (recombinant LmHslV [1]; [6]): the more potent cyclic analogue

Ac-VNLAKYLL-OH [Compound 4]
Activation of LmHslV (AMC fluorescence liberated per minute) (recombinant LmHslV [2]): robust activation

H-arg-O2Oc-Leu-Gln-Lys-c[Asp-Val-Asn-Leu-lys]-Lys-Tyr-Leu-Leu-OH (sidechain bridge or staple) [Compound 39]
LmHslV activation by cyclic analogues relative to reference peptide 10 (recombinant LmHslV [1]; [6]): much more potent than the linear compound 24

H-arg-O2Oc-Phe-Ile-Lys-Gln-Tyr-Asp-Leu-Lys-Lys-Tyr-Ile-Ile-OH [Compound 14]
Potency of LmHslV activation relative to LmC12-U2 (recombinant LmHslV [1]; [7]): 1.5 fold

H-arg-O2Oc-Leu-Gln-Lys-Asn-Val-Asn-Leu-ala-Lys-Tyr-Leu-Leu-OH [Compound 24]
LmHslV activation, Ala-scan, D-scan and truncations, relative to LmC12-U2 (recombinant LmHslV [1]; peptide 500 μM, in words): residual activity
Decrease in activity relative to LmC12-U2 (recombinant LmHslV [1]; Z-EVNL-AMC 100 μM, peptide 500 μM, D-scan): 80%

H-arg-O2Oc-Leu-Val-Ala-Asp-Glu-Asp-Leu-Ser-Arg-Phe-Ile-Leu-OH [Compound 15]
LmHslV activation relative to reference peptide 10 (LmC12-U2) (recombinant LmHslV [1]; [5]): as potent as LmC12-U2

H-arg-O2Oc-Asn-Leu-Tyr-Lys-Leu-Val-Gln-Leu-Leu-Asn-Lys-Ala-OH [Compound 44]
LmHslV activation relative to reference peptide 10 (LmC12-U2) (recombinant LmHslV [1]; [5]): no activity

H-arg-O2Oc-Leu-Gln-Lys-c[Asp-Val-Asn-Leu-Dap]-Lys-Tyr-Leu-Leu-OH (sidechain bridge or staple) [Compound 42]
LmHslV activation by cyclic analogues relative to reference peptide 10 (recombinant LmHslV [1]; [6]): almost half as active as the reference peptide

1,2,3-Triazole-1,4 = [CH2CH2CO-(O2Oc)3-Leu-Gln-Lys-Asn-Val-Asn-Leu-Ala-Lys-Tyr-Leu-Leu-OH]2 [Compound 12]
HslV activity with dimer relative to monomer 10 (recombinant LmHslV [1]; LmHslV, 37 °C, 30 min, peptide 550 μM, Z-EVNL-AMC 100 μM, Figure S3, in words): about twice that reached with the monomer

H-EDLSRFIL-OH [Compound 6]
Activation of LmHslV (AMC fluorescence liberated per minute) (recombinant LmHslV [2]): also found to activate LmHslV

H-arg-O2Oc-Met-Val-Lys-Lys-Val-Asp-Ile-Lys-Lys-Tyr-Ile-Leu-OH [Compound 9]
LmHslV activation relative to reference peptide 10 (LmC12-U2) (recombinant LmHslV [1]; [5]): increase in activity; also recorded: large increase in potency

H-arg-O2Oc-Leu-Gln-Lys-c[asp-Val-Asn-Leu-lys]-Lys-Tyr-Leu-Leu-OH (sidechain bridge or staple) [Compound 40]
Relative potency: percentage of initial velocity relative to LmC12-U2 (recombinant LmHslV [1]; cyclic analogues, substrate Z-EVNL-AMC, Figure 5): 55%
